# Reference: PubChem BioAssay AID1963438 (Molecular Pharmacology Branch, DTP, NCI, 2024)
# Test system: NCI-H510 multicellular tumor spheroid growth, % test/control
# Experiment: Anticancer human tumor NCI-H510 cell line growth inhibition [Asc];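 also: spheroids exposed to agents for 7 days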;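 as to viability, T/C: 100% = DMSO vehicle control wells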
# Details: for IC50: curve of first compound; for viability, T/C: stronger effect = lower value
# Description: Multicellular complex tumor spheroid response to apoptosis pathway targeting inhibitors Alrizomadlin, Pelcitoclax, and Dasminapant in combination with a variety of drugs and investigational agents in selected tumor cell lines
# The MDM2 inhibitor alrizomadlin, the Bcl-2/Bcl-xL inhibitor pelcitoclax, and the IAPs inhibitor dasminapant were evaluated both individually and in combination with standard of care and investigational anticancer small molecules within a complex spheroid model of solid tumors. . Complex spheroids include a stromal component modeled by human endothelial cells (HUVEC) and fibroblasts modeled by human mesenchymal stem cells (MSCs). The concentration ranges selected for each drug and investigational agent were based upon clinically achievable concentrations if the clinical Cmax of the agent was known.
# Compounds. The drugs and investigational agents: alrizomadlin (APG-115; NSC831270), pelcitoclax (APG-1252; NSC835773), dasminapant (APG-1387;NSC834197), TAK-243 (NSC785004), copanlisib (NSC809693), olaparib (NSC753686), talazoparib (NSC767125), cobimetinib (NSC 768068), eltanexor (KPT-8602, NSC 794443), abemaciclib (NSC 768073), sotorasib (NSC818433), adagrasib (NSC 831453), MRTX-1133 (NSC 836407), Iadademestat (ORY1001, NSC 806812), and RMC-4630 (NSC839698), were obtained from the NCI Developmental Therapeutics Program Chemical Repository. The FDA-approved anticancer drug set is available from the Developmental Therapeutics Program at https://dtp.cancer.gov/organization/dscb/obtaining/available plates.htm. […] The stock solutions were prepared in dimethyl sulfoxide (DMSO, Sigma-Aldrich, St. Louis, MO, cat. D2650) at 800-fold the tested concentration and stored at -70 degrees C prior to their use. All drugs and investigational agents were tested over a range starting from a high concentration at or near the clinical Cmax and decreasing in half-log increments. If the clinical Cmax for an agent had not been determined, the highest concentration tested was 10 microM.
# The patient-derived cancer (PDC) cell lines include five colon adenocarcinomas: 186277-243-T-J2-PDC, 616215-338-R-J1-PDC, 439559-082-T-J2-PDC, 463943-066-T-J2-PDC, and 519858-162-T-J1-PDC; three pancreatic carcinomas: 323965-272-R-J2-PDC, 521955-158-R6-J3-PDC, and 521955-158-R2-J5-PDC; two uterine sarcomas: 327498-152-R-J2-PDC and 993429-296-R-J1-PDC; two rhabdomyosarcomas: 755483-174-R-J1-PDC and 772245-204-R-J1-PDC; two soft tissue sarcomas: 126254-015-R-J1-PDC and 494315-158-R-J1-PDC; two malignant fibrous histiocytomas: 317291-083-R-J1-PDC and 596521-263-R-J1-PDC; two breast carcinomas: 171881-019-R-J1-PDC and 885512-296-R-J2-PDC; and one ovarian carcinoma: 6556581-035-R-J-PDC were obtained from the NCI PDMR, (https://pdmr.cancer.gov). The established cell lines HSSY-2 synovial sarcoma (RRID:CVCL 8719), SYO-1 synovial sarcoma (RRID:CVCL_7146), MPNST malignant peripheral neural sheath tumor were obtained from the Sloan Kettering Institute. The following established cell lines were purchased from the American Type Culture Collection (ATCC, Manassas, VA), Sor the received from the NCI repository:, PANC-1 pancreatic carcinoma (CRL-1469, RRID:CVCL_0480), OVCAR-5 ovarian carcinoma (RRID:CVCL_1628), OVCAR-8 ovarian carcinoma (RRID:CVCL_1629), , MCF-7 breast carcinoma (CRL-12584, RRID:CVCL_0031), MDA-MB-231 breast carcinoma (CRL-12532, RRID:CVCL_0062), NCI-H1876 small cell lung carcinoma (CRL-5902, RRID:CVCL_1503), NCI-H510A small cell lung carcinoma (HTB-184, RRID:CVCL_1565), NCI-H1417 (CRL-5869, RRID:CVCL_1469), and NCI-H196 small cell lung carcinoma (CRL-5823, RRID:CVCL_1509). Dr. Peter Houghton (Greehey Children's Cancer Research Institute, University of Texas Health Science Center, San Antonio, TX) provided Rh-18 rhabdomyosarcoma (RRID:CVCL_1659). Pooled donor human umbilical vein endothelial cells (HUVEC, Lonza, cat. CC-2519) and human mesenchymal stem cells (hMSC, Lonza, cat. PT-2501) were purchased from Lonza (Walkersville, MD).
# Cell Culture. […]
structure (smiles),measurement,setting,value
O=C(c1ccc(F)c(F)c1Nc1ccc(I)cc1F)N1CC(O)([C@@H]2CCCCN2)C1 + CCN1C(C(=O)NC23CCC(C(=O)O)(CC2)CC3)C(c2cccc(Cl)c2F)C2(C(=O)Nc3cc(Cl)ccc32)C12CCCCC2,IC50,second compound 0.03 µM,> 1 µM
same,IC50,second compound 0.0949 µM,> 1 µM
same,IC50,second compound 0.3 µM,> 1 µM
same,IC50,second compound 0.949 µM,> 1 µM
same,IC50,second compound 3 µM,> 1 µM
same,"viability, T/C","second compound 0.03 µM, first compound 0.00316 µM",95.8%
same,"viability, T/C","second compound 0.03 µM, first compound 0.01 µM",126%
same,"viability, T/C","second compound 0.03 µM, first compound 0.0316 µM",130%
same,"viability, T/C","second compound 0.03 µM, first compound 0.1 µM",121%
same,"viability, T/C","second compound 0.03 µM, first compound 0.316 µM",103%
same,"viability, T/C","second compound 0.03 µM, first compound 1 µM",103%
same,"viability, T/C","second compound 0.0949 µM, first compound 0.00316 µM",127%
same,"viability, T/C","second compound 0.0949 µM, first compound 0.01 µM",124%
same,"viability, T/C","second compound 0.0949 µM, first compound 0.0316 µM",105%
same,"viability, T/C","second compound 0.0949 µM, first compound 0.1 µM",95.7%
same,"viability, T/C","second compound 0.0949 µM, first compound 0.316 µM",126%
same,"viability, T/C","second compound 0.0949 µM, first compound 1 µM",116%
same,"viability, T/C","second compound 0.3 µM, first compound 0.00316 µM",122%
same,"viability, T/C","second compound 0.3 µM, first compound 0.01 µM",111%
same,"viability, T/C","second compound 0.3 µM, first compound 0.0316 µM",120%
same,"viability, T/C","second compound 0.3 µM, first compound 0.1 µM",119%
same,"viability, T/C","second compound 0.3 µM, first compound 0.316 µM",117%
same,"viability, T/C","second compound 0.3 µM, first compound 1 µM",91.5%
same,"viability, T/C","second compound 0.949 µM, first compound 0.00316 µM",120%
same,"viability, T/C","second compound 0.949 µM, first compound 0.01 µM",132%
same,"viability, T/C","second compound 0.949 µM, first compound 0.0316 µM",132%
same,"viability, T/C","second compound 0.949 µM, first compound 0.1 µM",131%
same,"viability, T/C","second compound 0.949 µM, first compound 0.316 µM",118%
same,"viability, T/C","second compound 0.949 µM, first compound 1 µM",116%
same,"viability, T/C","second compound 3 µM, first compound 0.00316 µM",134%
same,"viability, T/C","second compound 3 µM, first compound 0.01 µM",160%
same,"viability, T/C","second compound 3 µM, first compound 0.0316 µM",140%
same,"viability, T/C","second compound 3 µM, first compound 0.1 µM",114%
same,"viability, T/C","second compound 3 µM, first compound 0.316 µM",124%
same,"viability, T/C","second compound 3 µM, first compound 1 µM",127%
